Test results as given in patent US7709498B2, “Quinoline derivatives as antibacterial agents” (Janssen Pharmaceutica N.V., priority 2005, dated 2010).
In brackets after ≈: the same amount, converted by molar mass.

Assays:
Type in all cases: cell-based
[1] = tested on: Bacillus subtilis (ATCC43639); assay: Microtitre plate assay, IC90 determination, BSU 43639; settings: 90% inhibitory concentration for bacterial growth, 37° C., resazurin fluorescence; for IC90: Bacillus subtilis, ATCC43639, 24 h, read-out: IC90 (μg/ml) BSU 43639
Experimental: (§1) The bacteria used in this study were grown overnight in flasks containing 100 ml Mueller-Hinton Broth (Becton Dickinson—cat. no. 275730) in sterile de-ionized water, with shaking, at 37° C. Stocks (0.5 ml/tube) were stored at −70° C. until use. Bacteria titrations were performed in microtiter plates to detect the TCID50, in which the TCID50 represents the dilution that gives rise to bacterial growth in 50% of inoculated cultures.
(§2) In general, an inoculum level of approximately 100 TCID50 was used for susceptibility testing.
(§3) Flat-bottom, sterile 96-well plastic microtiter plates were filled with 180 μl of sterile deionized water, supplemented with 0.25% BSA. Subsequently, stock solutions (7.8× final test concentration) of compounds were added in 45 μl volumes in column 2. Serial five-fold dilutions (45 μl in 180 μl) were made directly in the microtiter plates from column 2 to reach column 11. Untreated control samples with (column 1) and without (column 12) inoculum were included in each microtiter plate. Depending on the bacteria type, approximately 10 to 60 CFU per well of bacteria inoculum (100 TCID50), in a volume of 100 μl in 2.8× Mueller-Hinton broth medium, was added to the rows A to H, except column 12. The same volume of broth medium without inoculum was added to column 12 in row A to H. The cultures were incubated at 37° C. for 24 hours under a normal atmosphere (incubator with open air valve and continuous ventilation). At the end of incubation, one day after inoculation, the bacterial growth was quantitated fluorometrically. Therefore resazurin (0.6 mg/ml) was added in a volume of 20 μl to all wells 3 hours after inoculation, and the plates were re-incubated overnight. A change in colour from blue to pink indicated the growth of bacteria. The fluorescence was read in a computer-controlled fluorometer (Cytofluor Biosearch) at an excitation wavelength of 530 nm and an emission wavelength of 590 nm. The % growth inhibition achieved by the compounds was calculated according to standard methods. The IC90 (expressed in μg/ml) was defined as the 90% inhibitory concentration for bacterial growth.
(§4) BSU 3639 means Bacillus subtilis (ATCC43639); ECO 25922 means Escherichia coli (ATCC25922); EFA 14506 means Enterococcus faecalis (ATCC14506); EFA 29212 means Enterococcus faecalis (ATCC29212); LMO 49594 means Listeria monocytogenes (ATCC49594); PAE 27853 means Pseudomonas aeruginosa (ATCC27853); SMU 33402 means Streptococcus mutans (ATCC33402); SPN 6305 means Streptococcus pneumoniae (ATCC6305); SPY 8668 means Streptococcus pyogens (ATCC8668); STA 43300 means Staphylococcus aureus (ATCC43300); STA 25923 means Staphylococcus aureus (ATCC25923); STA 29213 means Staphylococcus aureus (ATCC29213); STA RMETH means methicilline resistant Staphylococcus aureus (MRSA) (a clinical isolate from the University of Antwerp). ATCC means American type tissue culture.

[2] = tested on: Enterococcus faecalis (ATCC29212); assay: Microtitre plate assay, IC90 determination, EFA 29212; settings: 90% inhibitory concentration for bacterial growth, 37° C., resazurin fluorescence; for IC90: Enterococcus faecalis, ATCC29212, 24 h, read-out: IC90 (μg/ml) EFA 29212
Experimental: as §1, §2, §3, §4

[3] = tested on: Listeria monocytogenes (ATCC49594); assay: Microtitre plate assay, IC90 determination, LMO 49594; settings: 90% inhibitory concentration for bacterial growth, 37° C., resazurin fluorescence; for IC90: Listeria monocytogenes, ATCC49594, 24 h, read-out: IC90 (μg/ml) LMO 49594; for IC90 (μg/ml) LMO 49594: 24 hours
Experimental: as §1, §2, §3, §4

[4] = tested on: Staphylococcus aureus (ATCC25923); assay: Microtitre plate assay, IC90 determination, STA 25923; settings: 90% inhibitory concentration for bacterial growth, 37° C., resazurin fluorescence
Experimental: as §1, §2, §3, §4

[5] = tested on: Pseudomonas aeruginosa (ATCC27853); assay: Microtitre plate assay, IC90 determination, PAE 27853; settings: 90% inhibitory concentration for bacterial growth, 37° C., resazurin fluorescence; for IC90: Pseudomonas aeruginosa, ATCC27853, 24 h, read-out: IC90 (μg/ml) PAE 27853
Experimental: as §1, §2, §3, §4

[6] = tested on: Streptococcus mutans (ATCC33402); assay: Microtitre plate assay, IC90 determination, SMU 33402; settings: 90% inhibitory concentration for bacterial growth, 37° C., resazurin fluorescence; for IC90: Streptococcus mutans, ATCC33402, 24 h, read-out: IC90 (μg/ml) SMU 33402
Experimental: as §1, §2, §3, §4

[7] = tested on: Streptococcus pneumoniae (ATCC6305); assay: Microtitre plate assay, IC90 determination, SPN 6305; settings: 90% inhibitory concentration for bacterial growth, 37° C., resazurin fluorescence; for IC90 (μg/ml) SPN 6305: 24 hours; for IC90: Streptococcus pneumoniae, ATCC6305, 24 h, read-out: IC90 (μg/ml) SPN 6305
Experimental: as §1, §2, §3, §4

[8] = tested on: Streptococcus pyogens (ATCC8668); assay: Microtitre plate assay, IC90 determination, SPY 8668; settings: 90% inhibitory concentration for bacterial growth, 37° C., resazurin fluorescence; for IC90 (μg/ml) SPY 8668: 24 hours; for IC90: Streptococcus, ATCC8668, 24 h, read-out: IC90 (μg/ml) SPY 8668
Experimental: as §1, §2, §3, §4

[9] = tested on: Staphylococcus aureus (ATCC43300); assay: Microtitre plate assay, IC90 determination, STA 43300; settings: Staphylococcus aureus, ATCC43300, 24 h, 90% inhibitory concentration for bacterial growth, 37° C., resazurin fluorescence, read-out: IC90 (μg/ml) STA 43300
Experimental: as §1, §2, §3, §4

[10] = tested on: Enterococcus faecalis (ATCC14506); assay: Microtitre plate assay, IC90 determination, EFA 14506; settings: Enterococcus faecalis, ATCC14506, 24 h, 90% inhibitory concentration for bacterial growth, 37° C., resazurin fluorescence, read-out: IC90 (μg/ml) EFA 14506
Experimental: as §1, §2, §3, §4

Row | SMILES | IC90 [2] [µg/mL] | IC90 [3] [µg/mL] | IC90 (μg/ml) SPN 6305 [7] [µg/mL] | IC90 [5] [µg/mL] | IC90 [9] [µg/mL] | IC90 [6] [µg/mL] | IC90 [7] [µg/mL] | also measured
1 | CCNCCC(O)(c1ccc(F)cc1F)C(c1ccccc1)c1cc2cc(Br)ccc2nc1OC (racemic) [B] |  |  |  |  |  |  |  | IC90 (μg/ml) STA 25923 ([4]; 24 hours): 8.6 µg/mL (≈ 15.9 µM)
2 | COc1nc2ccc(Br)cc2cc1C(c1ccccc1)C(O)(CCN1CCCCC1)c1ccccc1 (centres unmarked) [Compound 48] |  | 10.9 (≈ 20 µM) |  | 10.9 (≈ 20 µM) |  | 10.9 (≈ 20 µM) | 13.7 (≈ 25.1 µM) | IC90 [8]: 13.7 µg/mL (≈ 25.1 µM)
3 | COc1nc2ccc(Br)cc2cc1C(c1ccccc1)C(O)(CCN1CCCCC1)c1ccc2cc(Br)ccc2c1 (centres unmarked) [Compound 155] |  |  |  |  |  |  |  | IC90 [10]: 26.9 µg/mL (≈ 39.9 µM)
4 | COc1nc2ccc(Br)cc2cc1C(c1ccccc1)C(O)(CCN(C)C)c1ccc2c(c1)OCCO2 (centres unmarked) [Compound 77] |  |  |  | 11.2 (≈ 19.9 µM) |  |  | 14.2 (≈ 25.2 µM) | 
5 | COc1nc2ccc(Br)cc2cc1C(c1ccccc1)C(O)(CCN(C)C)c1cccs1 (centres unmarked) [Compound 21] | 11.5 (≈ 22.5 µM) | 4.6 (≈ 8.99 µM) | 12.8 (≈ 25 µM) |  | 12.8 (≈ 25 µM) | 11.5 (≈ 22.5 µM) |  | 
6 | COc1nc2ccc(Br)cc2cc1C(c1ccc(Cl)cc1)C(O)(CCN(C)C)c1ccccc1 (centres unmarked) [Compound 36] | 4.8 (≈ 8.89 µM) | 5.4 (≈ 10 µM) | 2.7 (≈ 5 µM) | 4.8 (≈ 8.89 µM) | 4.8 (≈ 8.89 µM) | 3.8 (≈ 7.04 µM) |  | IC90 [1]: 24.1 µg/mL (≈ 44.6 µM); IC90 [8]: 0.4 µg/mL (≈ 0.741 µM)
7 | COc1nc2ccc(Br)cc2cc1C(c1ccccc1)C(O)(CCN(C)C)c1ccccc1F (centres unmarked) [Compound 69] |  | 10.4 (≈ 19.9 µM) |  | 10.4 (≈ 19.9 µM) |  |  | 13.1 (≈ 25 µM) | 
8 | COc1nc2ccc(Br)cc2cc1C(c1ccccc1)C(O)(CCN(C)C)c1ccc2c(c1)OCO2 (centres unmarked) [Compound 76] |  | 11 (≈ 20 µM) |  | 11 (≈ 20 µM) |  |  |  | 

Now from value to molecule, other results behind:

Row | IC90 [2] [µg/mL] | IC90 [3] [µg/mL] | IC90 (μg/ml) SPN 6305 [7] [µg/mL] | IC90 [5] [µg/mL] | IC90 [9] [µg/mL] | IC90 [6] [µg/mL] | IC90 [7] [µg/mL] | SMILES | also measured
9 | 10.8 (≈ 20 µM) | 10.8 (≈ 20 µM) |  |  |  |  |  | COc1nc2ccc(-c3cccnc3)cc2cc1C(c1ccccc1)C(O)(CCN(C)C)c1cc(F)cc(F)c1 (centres unmarked) [Compound G] | IC90 [1]: 13.6 µg/mL (≈ 25.2 µM)
10 |  |  | 5.2 (≈ 11.3 µM) |  |  |  |  | COc1nc2ccc(Cl)cc2cc1C(c1ccccc1)C(O)(CCN(C)C)c1ccccc1 (centres unmarked) [Compound 30] | IC90 (μg/ml) EFA 29212 ([2]; 24 hours): 10.3 µg/mL (≈ 22.3 µM); IC90 (μg/ml) LMO 49594 [3]: 10.3 µg/mL (≈ 22.3 µM); IC90 (μg/ml) PAE 27853 ([5]; 24 hours): 9.2 µg/mL (≈ 20 µM); IC90 (μg/ml) SMU 33402 ([6]; 24 hours): 10.3 µg/mL (≈ 22.3 µM); IC90 (μg/ml) SPY 8668 [8]: 10.3 µg/mL (≈ 22.3 µM)
11 | 11.7 (≈ 22.4 µM) |  | 13.1 (≈ 25 µM) | 11.7 (≈ 22.4 µM) | 13.1 (≈ 25 µM) |  |  | COc1nc2ccc(Br)cc2cc1C(c1ccccc1)C(O)(CCN(C)C)c1cccc(F)c1 (centres unmarked) [Compound 109] | IC90 (μg/ml) LMO 49594 [3]: 9.3 µg/mL (≈ 17.8 µM); IC90 (μg/ml) SPY 8668 [8]: 13.1 µg/mL (≈ 25 µM); IC90 ([4]; Staphylococcus aureus, ATCC25923, 24 h, read-out: IC90 (μg/ml) STA 25923): 10.4 µg/mL (≈ 19.9 µM)
12 | 5 (≈ 9 µM) | 2.8 (≈ 5.04 µM) |  | 5 (≈ 9 µM) | 5.6 (≈ 10.1 µM) | 5.6 (≈ 10.1 µM) | 2.8 (≈ 5.04 µM) | COc1nc2ccc(Br)cc2cc1C(c1ccccc1)C(O)(CCN(C)C)c1ccc2ccccc2c1 (centres unmarked) [Compound 46] | IC90 [8]: 0.6 µg/mL (≈ 1.08 µM)
13 |  |  | 12.6 (≈ 25.1 µM) |  |  |  |  | COc1nc2ccc(-c3ccccc3)cc2cc1C(c1ccccc1)C(O)(CCN(C)C)c1ccccc1 (centres unmarked) [Compound 27] | IC90 (μg/ml) BSU 43639 ([1]; 24 hours): 10.0 µg/mL (≈ 19.9 µM); IC90 (μg/ml) LMO 49594 [3]: 8.9 µg/mL (≈ 17.7 µM)
